Laboratory results: PubChem BioAssay AID1963448 (Molecular Pharmacology Branch, DTP, NCI, 2024)

Test system: 616215-338-R-J1-PDC complex spheroid growth, % test/control
Experiment: Anticancer human tumor 616215-338-R-J1-PDC patient-derived colon adenocarcinoma cell line growth inhibition [Asc]
Conditions: for IC50: curve of first compound; for viability, T/C: stronger effect = lower value
Description: Multicellular complex tumor spheroid response to apoptosis pathway targeting inhibitors Alrizomadlin, Pelcitoclax, and Dasminapant in combination with a variety of drugs and investigational agents in selected tumor cell lines
The MDM2 inhibitor alrizomadlin, the Bcl-2/Bcl-xL inhibitor pelcitoclax, and the IAPs inhibitor dasminapant were evaluated both individually and in combination with standard of care and investigational anticancer small molecules within a complex spheroid model of solid tumors. . Complex spheroids include a stromal component modeled by human endothelial cells (HUVEC) and fibroblasts modeled by human mesenchymal stem cells (MSCs). The concentration ranges selected for each drug and investigational agent were based upon clinically achievable concentrations if the clinical Cmax of the agent was known.
Compounds. The drugs and investigational agents: alrizomadlin (APG-115; NSC831270), pelcitoclax (APG-1252; NSC835773), dasminapant (APG-1387;NSC834197), TAK-243 (NSC785004), copanlisib (NSC809693), olaparib (NSC753686), talazoparib (NSC767125), cobimetinib (NSC 768068), eltanexor (KPT-8602, NSC 794443), abemaciclib (NSC 768073), sotorasib (NSC818433), adagrasib (NSC 831453), MRTX-1133 (NSC 836407), Iadademestat (ORY1001, NSC 806812), and RMC-4630 (NSC839698), were obtained from the NCI Developmental Therapeutics Program Chemical Repository. The FDA-approved anticancer drug set is available from the Developmental Therapeutics Program at https://dtp.cancer.gov/organization/dscb/obtaining/available plates.htm. […] The stock solutions were prepared in dimethyl sulfoxide (DMSO, Sigma-Aldrich, St. Louis, MO, cat. D2650) at 800-fold the tested concentration and stored at -70 degrees C prior to their use. All drugs and investigational agents were tested over a range starting from a high concentration at or near the clinical Cmax and decreasing in half-log increments. If the clinical Cmax for an agent had not been determined, the highest concentration tested was 10 microM.
The patient-derived cancer (PDC) cell lines include five colon adenocarcinomas: 186277-243-T-J2-PDC, 616215-338-R-J1-PDC, 439559-082-T-J2-PDC, 463943-066-T-J2-PDC, and 519858-162-T-J1-PDC; three pancreatic carcinomas: 323965-272-R-J2-PDC, 521955-158-R6-J3-PDC, and 521955-158-R2-J5-PDC; two uterine sarcomas: 327498-152-R-J2-PDC and 993429-296-R-J1-PDC; two rhabdomyosarcomas: 755483-174-R-J1-PDC and 772245-204-R-J1-PDC; two soft tissue sarcomas: 126254-015-R-J1-PDC and 494315-158-R-J1-PDC; two malignant fibrous histiocytomas: 317291-083-R-J1-PDC and 596521-263-R-J1-PDC; two breast carcinomas: 171881-019-R-J1-PDC and 885512-296-R-J2-PDC; and one ovarian carcinoma: 6556581-035-R-J-PDC were obtained from the NCI PDMR, (https://pdmr.cancer.gov). The established cell lines HSSY-2 synovial sarcoma (RRID:CVCL 8719), SYO-1 synovial sarcoma (RRID:CVCL_7146), MPNST malignant peripheral neural sheath tumor were obtained from the Sloan Kettering Institute. The following established cell lines were purchased from the American Type Culture Collection (ATCC, Manassas, VA), Sor the received from the NCI repository:, PANC-1 pancreatic carcinoma (CRL-1469, RRID:CVCL_0480), OVCAR-5 ovarian carcinoma (RRID:CVCL_1628), OVCAR-8 ovarian carcinoma (RRID:CVCL_1629), , MCF-7 breast carcinoma (CRL-12584, RRID:CVCL_0031), MDA-MB-231 breast carcinoma (CRL-12532, RRID:CVCL_0062), NCI-H1876 small cell lung carcinoma (CRL-5902, RRID:CVCL_1503), NCI-H510A small cell lung carcinoma (HTB-184, RRID:CVCL_1565), NCI-H1417 (CRL-5869, RRID:CVCL_1469), and NCI-H196 small cell lung carcinoma (CRL-5823, RRID:CVCL_1509). Dr. Peter Houghton (Greehey Children's Cancer Research Institute, University of Texas Health Science Center, San Antonio, TX) provided Rh-18 rhabdomyosarcoma (RRID:CVCL_1659). Pooled donor human umbilical vein endothelial cells (HUVEC, Lonza, cat. CC-2519) and human mesenchymal stem cells (hMSC, Lonza, cat. PT-2501) were purchased from Lonza (Walkersville, MD).
Cell Culture. […]

[1] = second compound 0.03 µM, first compound 0.00316 µM
[2] = second compound 0.03 µM, first compound 0.01 µM
[3] = second compound 0.03 µM, first compound 0.0316 µM
[4] = second compound 0.03 µM, first compound 0.1 µM
[5] = second compound 0.03 µM, first compound 0.316 µM
[6] = second compound 0.03 µM, first compound 1 µM
[7] = second compound 0.0949 µM, first compound 0.00316 µM
[8] = second compound 0.0949 µM, first compound 0.01 µM
[9] = second compound 0.0949 µM, first compound 0.0316 µM
[10] = second compound 0.0949 µM, first compound 0.1 µM
[11] = second compound 0.0949 µM, first compound 0.316 µM
[12] = second compound 0.0949 µM, first compound 1 µM
[13] = second compound 0.3 µM, first compound 0.00316 µM
[14] = second compound 0.3 µM, first compound 0.01 µM
[15] = second compound 0.3 µM, first compound 0.0316 µM
[16] = second compound 0.3 µM, first compound 0.1 µM
[17] = second compound 0.3 µM, first compound 0.316 µM
[18] = second compound 0.3 µM, first compound 1 µM
[19] = second compound 0.949 µM, first compound 0.00316 µM
[20] = second compound 0.949 µM, first compound 0.01 µM
[21] = second compound 0.949 µM, first compound 0.0316 µM
[22] = second compound 0.949 µM, first compound 0.1 µM
[23] = second compound 0.949 µM, first compound 0.316 µM
[24] = second compound 0.949 µM, first compound 1 µM
[25] = second compound 3 µM, first compound 0.00316 µM
[26] = second compound 3 µM, first compound 0.01 µM
[27] = second compound 3 µM, first compound 0.0316 µM
[28] = second compound 3 µM, first compound 0.1 µM
[29] = second compound 3 µM, first compound 0.316 µM
[30] = second compound 3 µM, first compound 1 µM
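Note: spheroids exposed to agents for seven days before readout.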
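Throughout, for viability, T/C: 100% = DMSO vehicle control viability.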

Compound | IC50 (second compound 0.03 µM) | IC50 (second compound 0.0949 µM) | IC50 (second compound 0.3 µM) | IC50 (second compound 0.949 µM) | IC50 (second compound 3 µM) | viability, T/C [1] | viability, T/C [2] | viability, T/C [3] | viability, T/C [4] | viability, T/C [7] | viability, T/C [8] | viability, T/C [9] | viability, T/C [10] | viability, T/C [13] | viability, T/C [14] | viability, T/C [15] | viability, T/C [16] | viability, T/C [19] | viability, T/C [20] | viability, T/C [21] | also measured
CCN1CCN(Cc2ccc(Nc3ncc(F)c(-c4cc(F)c5nc(C)n(C(C)C)c5c4)n3)nc2)CC1 + CCN1C(C(=O)NC23CCC(C(=O)O)(CC2)CC3)C(c2cccc(Cl)c2F)C2(C(=O)Nc3cc(Cl)ccc32)C12CCCCC2 | > 1 µM | > 1 µM | > 1 µM | > 1 µM | 0.15 µM | 102% | 99.2% | 104% | 108% | 93.6% | 96% | 97.2% | 80.5% | 66.2% | 67% | 63.3% | 58.3% | 60.5% | 66.6% | 72.1% | viability, T/C [5]: 108%; viability, T/C [6]: 116%; viability, T/C [11]: 88.2%; viability, T/C [12]: 75.2%; viability, T/C [17]: 69.5%; viability, T/C [18]: 59.9%; viability, T/C [22]: 68.9%; viability, T/C [23]: 83.6%; viability, T/C [24]: 52%; viability, T/C [25]: 48.2%; viability, T/C [26]: 52.4%; viability, T/C [27]: 48.3%; viability, T/C [28]: 56.4%; viability, T/C [29]: 54.7%; viability, T/C [30]: 42.2%
Cn1ncnc1[C@H]1c2n[nH]c(=O)c3cc(F)cc(c23)N[C@@H]1c1ccc(F)cc1 + CCN1C(C(=O)NC23CCC(C(=O)O)(CC2)CC3)C(c2cccc(Cl)c2F)C2(C(=O)Nc3cc(Cl)ccc32)C12CCCCC2 | > 0.1 µM | > 0.1 µM | > 0.1 µM | > 0.1 µM | 0.00314 µM | 97.8% | 105% | 92.3% | 85.5% | 89% | 85% | 81.5% | 75.6% | 67.6% | 56.7% | 58.9% | 61.8% | 67.4% | 56.8% | 57.2% | viability, T/C (second compound 0.03 µM, first compound 0.000316 µM): 107%; viability, T/C (second compound 0.03 µM, first compound 0.001 µM): 103%; viability, T/C (second compound 0.0949 µM, first compound 0.000316 µM): 99.2%; viability, T/C (second compound 0.0949 µM, first compound 0.001 µM): 95.5%; viability, T/C (second compound 0.3 µM, first compound 0.000316 µM): 69.6%; viability, T/C (second compound 0.3 µM, first compound 0.001 µM): 70.9%; viability, T/C (second compound 0.949 µM, first compound 0.000316 µM): 65.3%; viability, T/C (second compound 0.949 µM, first compound 0.001 µM): 66.5%; viability, T/C [22]: 61.3%; viability, T/C (second compound 3 µM, first compound 0.000316 µM): 50.2%; viability, T/C (second compound 3 µM, first compound 0.001 µM): 55.5%; viability, T/C [25]: 49.9%; viability, T/C [26]: 46.1%; viability, T/C [27]: 47.5%; viability, T/C [28]: 48.3%
O=C(c1ccc(F)c(F)c1Nc1ccc(I)cc1F)N1CC(O)([C@@H]2CCCCN2)C1 + CCN1C(C(=O)NC23CCC(C(=O)O)(CC2)CC3)C(c2cccc(Cl)c2F)C2(C(=O)Nc3cc(Cl)ccc32)C12CCCCC2 | 0.07 µM | 0.0529 µM | 0.0164 µM | 0.00581 µM | < 0.00316 µM | 89.9% | 88.6% | 90.1% | 32.3% | 93.8% | 93.6% | 74.5% | 19.6% | 59.8% | 57.7% | 38.8% | 3% | 55.5% | 44.2% | 23.3% | viability, T/C [5]: 0.26%; viability, T/C [6]: 0.38%; viability, T/C [11]: 0.23%; viability, T/C [12]: 0.37%; viability, T/C [17]: 1.18%; viability, T/C [18]: 1.93%; viability, T/C [22]: 2.29%; viability, T/C [23]: 1.21%; viability, T/C [24]: 3.73%; viability, T/C [25]: 40.3%; viability, T/C [26]: 36%; viability, T/C [27]: 3.79%; viability, T/C [28]: 0.28%; viability, T/C [29]: 0.56%; viability, T/C [30]: 2.69%
